Measurements: patent publication US20250195638A1, “TREATMENT AND PREVENTION OF CONDITIONS ASSOCIATED WITH RESPIRATORY DISEASES” (priority 2020, published 2025)

System: Plasmid (pMB57.6)-DNA
Format: binding
Settings: 0.5 μM

With “SARS-CoV-2 (2019-nCoV) nucleocapsid recombinant protein [N-protein]” the “decrease of fluorescence intensity of DNA-DiYO-1 complex” value was 96.3%.
